Our source for the IC50 values is patent US7858621B2 (Amorepacific Corporation, priority 2006, dated 2010).

Where only a bound is given, the exact number is not on record here.

T1 sequence (O35433 whole entry): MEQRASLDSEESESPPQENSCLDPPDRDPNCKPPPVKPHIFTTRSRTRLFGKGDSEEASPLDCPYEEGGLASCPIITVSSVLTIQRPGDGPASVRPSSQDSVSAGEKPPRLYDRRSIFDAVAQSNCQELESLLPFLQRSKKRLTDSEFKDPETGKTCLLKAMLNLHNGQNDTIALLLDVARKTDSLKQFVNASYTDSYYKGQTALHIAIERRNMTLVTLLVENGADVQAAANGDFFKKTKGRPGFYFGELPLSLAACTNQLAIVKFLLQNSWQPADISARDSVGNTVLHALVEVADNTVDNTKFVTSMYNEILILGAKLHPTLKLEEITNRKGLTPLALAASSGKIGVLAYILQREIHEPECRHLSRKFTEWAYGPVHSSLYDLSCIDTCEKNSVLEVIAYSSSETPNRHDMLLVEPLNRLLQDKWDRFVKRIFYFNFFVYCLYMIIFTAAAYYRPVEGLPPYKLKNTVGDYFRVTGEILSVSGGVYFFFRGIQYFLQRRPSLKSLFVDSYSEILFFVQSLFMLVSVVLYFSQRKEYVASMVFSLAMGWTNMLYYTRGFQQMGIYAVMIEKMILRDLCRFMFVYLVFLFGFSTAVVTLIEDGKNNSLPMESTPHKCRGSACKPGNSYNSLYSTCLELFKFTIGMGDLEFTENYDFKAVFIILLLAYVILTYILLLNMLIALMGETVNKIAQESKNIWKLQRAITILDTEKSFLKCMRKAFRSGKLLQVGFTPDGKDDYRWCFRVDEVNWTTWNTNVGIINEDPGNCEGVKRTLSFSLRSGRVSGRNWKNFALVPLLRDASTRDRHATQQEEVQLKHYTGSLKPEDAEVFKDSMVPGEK

This experiment addresses T1, vanilloid receptor (Rattus norvegicus, UniProt O35433).
T1 construct: DRG nerve cells from the primary culture of 2 days were equilibrated; endogenous in cells; host or cells: primary culture of dorsal root ganglion neurons from neonatal SD rats
The experiment is described as follows: 45Ca influx test in cultured neonatal rat DRG neurons, inhibition of capsaicin response. The experiment is classed as cell-based. The following applies: neonatal rat DRG neurons, capsaicin 0.5 μM, 45Ca influx; read-out: Antagonist Calcium Uptake Test (IC50). The protocol:
1) Separation of Spinal Dorsal Root Ganglia (DRG) in Newborn Rats and Primary Culture Thereof
Neonatal (2-3 day old or younger than 2-3 day old) SD rats were put in ice for 5 minutes to anesthetize and disinfected with 70% ethanol. […] The DRG were incubated sequentially at 37° C. for 30 mins in 200 U/ml collagenase and 2.5 mg/ml trypsin, separately. The ganglia were washed twice with DME/F12 medium supplemented with 10% horse serum, triturated through a fire-polished Pasteur pipette, filtered through Nitex 80 membrane to obtain single cell suspension and the suspension was washed once more. This was subjected to centrifugation, then resuspended in cell culture medium at certain level of cell density. As the cell culture medium, DME/F12 medium supplemented with 10% horse serum was diluted with identical medium conditioned by C6 glioma cells 2 days on a confluent monolayer (1:1), and NGF (Nerve Growth Factor) was added to adjust 200 ng/ml as final concentration. After the cells were grown 2 days in medium where cytosine arabinoside (Ara-C, 100 μM) was added to kill dividing nonneuronal cells, medium was changed to one without Ara-C. The resuspended cells were plated at a density of 1500-2000 neurons/well onto Terasaki plates previously coated with 10 μg/ml poly-D-ornithine.
2) ^45Ca Influx Experiments
DRG nerve cells from the primary culture of 2 days were equilibrated by washing 4 times with HEPES (10 mM, pH 7.4)-buffered Ca^2+, Mg^2+-free HBSS (H-HBSS). The solution in each well was removed from the individual well. Medium containing the test compound plus capsaicin (final concentration 0.5 μM) and ^45Ca (final concentration 10 μCi/ml) in H-HBSS was added to each well and incubated at room temperature for 10 mins. Terasaki plates were washed five times with H-HBSS and dried at room temperature. To each well, 0.3% SDS (10 μl) was added to elute ^45Ca. After the addition of scintillation cocktail of into each well, the amount of ^45Ca influx into neuron was measured by counting radioactivity.
As a reminder, the IC50 is the concentration needed to halve the response being measured. For “2-(2-piperid-1-yl-6-chloro-pyridinyl-3-yloxy)-N-(3-fluoro-4-methanesulfonylamino-benzyl)-acetamide [Example 13]”, the concentration for half-maximal inhibition (IC50) was found to be 3500 nM.

In the case of `C#Cc1cc(CNC(=O)/C=C/c2ccc(C(F)(F)F)nc2N2CCC[C@H]2CO)cc(F)c1NS(C)(=O)=O` (stereo in doubt) [Example 83, N-(3-Ethynyl-5-fluoro-4-methansulfonylamino-benzyl)-3-[2-(2-hydroxymethyl-pyrrolidin-1-yl)-6-trifluoromethyl-pyridin-3-yl]-acrylamide], the IC50 turned out to be 2100 nM.

Take `C#Cc1cc(CNC(=O)/C=C/c2ccc(C(C)(C)C)nc2)cc(F)c1NS(C)(=O)=O` [Example 3, 3-(6-tert-Butyl-pyridin-3-yl)-N-(3-ethynyl-5-fluoro-4-methanesulfonylamino-benzyl)-acrylamide]: the IC50 amounted to 520 nM.

On to `CS(=O)(=O)Nc1ccc(CNC(=O)/C=C/c2ccc(C(F)(F)F)nc2N2CCOCC2)cc1F` [Example 5, N-(3-Fluoro-4-methanesulfonylamino-benzyl)-3-(2-morpholin-4-yl-6-trifluoromethyl-pyridin-3-yl)-acrylamide], for which the IC50 is 1500 nM.

On to `C=Cc1cc(CNC(=O)/C=C/c2ccc(C(F)(F)F)nc2N2CCOCC2)ccc1NS(C)(=O)=O` [Example 6, N-(4-Methanesulfonylamino-3-vinyl-benzyl)-3-(2-morpholin-4-yl-6-trifluoromethyl-pyridin-3-yl)-acrylamide], for which the IC50 was found to be 300 nM.

`Cc1cc(CNC(=O)/C=C/c2ccc(C(F)(F)F)nc2N2CCOCC2)cc(F)c1NS(C)(=O)=O` [Example 8, N-(3-Fluoro-4-methanesulfonylamino-5-methyl-benzyl)-3-(2-morpholin-4-yl-6-trifluoromethyl-pyridin-3-yl)-acrylamide]: the IC50 is 420 nM.

`C=Cc1cc(CNC(=O)/C=C/c2ccc(C(C)(C)C)nc2)cc(F)c1NS(C)(=O)=O` [Example 10, 3-(6-tert-Butyl-pyridin-3-yl)-N-(3-fluoro-4-methanesulfonylamino-5-vinyl-benzyl)-acrylamide]: the IC50 stood at 280 nM.

Turning to `C#Cc1cc(CNC(=O)/C=C/c2ccc(C(C)(C)C)nc2OC)cc(F)c1NS(C)(=O)=O` [Example 11, 3-(6-tert-Butyl-2-methoxy-pyridin-3-yl)-N-(3-ethynyl-5-fluoro-4-methanesulfonylamino-benzyl)-acrylamide], the IC50 worked out at 290 nM.

As to `C#Cc1cc(CNC(=O)/C=C/c2ccc(Cl)nc2)cc(F)c1NS(C)(=O)=O` [Example 14, 3-(6-Chloro-pyridin-3-yl)-N-(3-ethynyl-5-fluoro-4-methanesulfonylamino-benzyl)-acrylamide], the IC50 was above 10000 nM.

As for `C#Cc1cc(CNC(=O)/C=C/c2ccc(Br)nc2)cc(F)c1NS(C)(=O)=O` [Example 15, 3-(6-Bromo-pyridin-3-yl)-N-(3-ethynyl-5-fluoro-4-methanesulfonylamino-benzyl)-acrylamide], the IC50 turned out to be 5900 nM.

In the case of `CC(C)(C)c1cc(C(F)(F)F)c(/C=C/C(=O)NCc2ccc(NS(C)(=O)=O)c(F)c2)cn1` [Example 17, 3-(6-tert-Butyl-4-trifluoromethyl-pyridin-3-yl)-N-(3-fluoro-4-methanesulfonylamino-benzyl)-acrylamide], the IC50 worked out at 570 nM.

For the compound `C#Cc1cc(CNC(=O)/C=C/c2cnc(C(C)(C)C)cc2C(F)(F)F)cc(F)c1NS(C)(=O)=O` [Example 18, 3-(6-tert-Butyl-4-trifluoromethyl-pyridin-3-yl)-N-(3-ethynyl-5-fluoro-4-methanesulfonylamino-benzyl)-acrylamide], the IC50 was found to be 130 nM.

As to `CS(=O)(=O)Nc1ccc(CNC(=O)/C=C/c2ccc(N3CCCCC3)nc2)cc1F` [Example 19, N-(3-Fluoro-4-methanesulfonylamino-benzyl)-3-(6-piperid-1-yl-pyridinyl-3-yl)-acrylamide], the IC50 was above 10000 nM.

In the case of `CS(=O)(=O)Nc1ccc(CNC(=O)/C=C/c2ccc(Br)nc2)cc1F` [Example 20, 3-(6-Bromo-pyridin-3-yl)-N-(3-fluoro-4-methanesulfonylamino-benzyl)-acrylamide], the IC50 is above 10000 nM.

For `CS(=O)(=O)Nc1c(F)cc(CNC(=O)/C=C/c2ccc(C(F)(F)F)nc2N2CCOCC2)cc1F` [Example 21, N-(3,5-Difluoro-4-methanesulfonylamino-benzyl)-3-(2-morpholin-4-yl-6-trifluoromethyl-pyridin-3-yl)-acrylamide], the IC50 came to 1100 nM.

As to `C#Cc1cc(CNC(=O)/C=C/c2ccc(C(F)(F)F)nc2N2CCCCC2)cc(F)c1NS(C)(=O)=O` [Example 24, N-(3-Ethynyl-5-fluoro-4-methanesulfonylamino-benzyl)-3-(2-piperid-1-yl-6-trifluoromethyl-pyridinyl-3-yl)-acrylamide], the IC50 was 340 nM.

`CS(=O)(=O)Nc1ccc(CNC(=O)/C=C/c2ccc(N3CCCC3)nc2)cc1F` [Example 25, N-(3-Fluoro-4-methanesulfonylamino-benzyl)-3-(6-pyrrolidin-1-yl-pyridin-3-yl)-acrylamide]: the IC50 is above 10000 nM.

On to `CS(=O)(=O)Nc1ccc(CNC(=O)/C=C/c2ccc(C(F)(F)F)nc2N2CCCCC2)cc1F` [Example 26, N-(3-Fluoro-4-methanesulfonylamino-benzyl)-3-(2-piperid-1-yl-6-trifluoromethyl-pyridinyl-3-yl)-acrylamide], for which the IC50 amounted to 1100 nM.

`CC(C)(C)c1ccc(OCC(=O)NCc2ccc(NS(C)(=O)=O)c(F)c2)cn1` [Example 29, 2-(6-tert-Butyl-pyridin-3-yloxy)-N-(3-fluoro-4-methanesulfonylamino-benzyl)-acetamide]: the IC50 was above 10000 nM.

In the case of `CC(C)(C)c1ccc(OCC(=O)NCc2ccc(NS(C)(=O)=O)c(F)c2)c(Cl)n1` [Example 30, 2-(6-tert-Butyl-2-chloro-pyridin-3-yloxy)-N-(3-fluoro-4-methanesulfonylamino-benzyl)-acetamide], the IC50 was found to be 3800 nM.

With `Cc1ccc(OCC(=O)NCc2ccc(NS(C)(=O)=O)c(F)c2)c(CO)n1` [Example 31, N-(3-Fluoro-4-methanesulfonylamino-benzyl)-2-(2-hydroxymethyl-6-methyl-pyridin-3-yloxy)-acetamide], the IC50 was above 10000 nM.

In the case of `CS(=O)(=O)Nc1ccc(CNC(=O)COc2ccc(C(F)(F)F)nc2)cc1F` [Example 32, N-(3-Fluoro-4-methanesulfonylamino-benzyl)-2-(6-trifluoromethyl-pyridin-3-yloxy)-acetamide], the IC50 is above 10000 nM.

On to `C#Cc1cc(CNC(=O)COc2ccc(Cl)nc2)cc(F)c1NS(C)(=O)=O` [Example 35, 2-(6-Chloro-pyridin-3-yloxy)-N-(3-ethynyl-5-fluoro-4-methanesulfonylamino-benzyl)-acetamide], for which the IC50 was above 10000 nM.

Regarding `CC(C)(C)c1ccc(/C=C/C(=O)NCc2ccc(NS(C)(=O)=O)c(F)c2)c(Br)n1` [Example 36, 3-(2-Bromo-6-tert-butyl-pyridin-3-yl)-N-(3-fluoro-4-methanesulfonylamino-benzyl)-acrylamide], the IC50 came to 180 nM.

On to `C#Cc1cc(CNC(=O)/C=C/c2ccc(C(C)(C)C)nc2Br)cc(F)c1NS(C)(=O)=O` [Example 37, 3-(2-Bromo-6-tert-butyl-pyridin-3-yl)-N-(3-ethynyl-5-fluoro-4-methanesulfonylamino-benzyl)-acrylamide], for which the IC50 worked out at 59 nM.

For `C#Cc1cc(CNC(=O)/C=C/c2ccc(C(F)(F)F)nc2N(CC)CC)cc(F)c1NS(C)(=O)=O` [Example 38, 3-(2-Diethylamino-6-trifluoromethyl-pyridin-3-yl)-N-(3-ethynyl-5-fluoro-4-methanesulfonylamino-benzyl)-acrylamide], the IC50 stood at 220 nM.

For `CC(C)(C)c1ccc(/C=C/C(=O)NCc2cc(F)c(NS(C)(=O)=O)c(F)c2)cn1` [Example 39, 3-(6-tert-Butyl-pyridin-3-yl)-N-(3,5-difluoro-4-methanesulfonylamino-benzyl)-acrylamide], the IC50 turned out to be 1600 nM.

For `C#Cc1cc(CNC(=O)/C=C/c2ccc(C(F)(F)F)nc2Cl)cc(F)c1NS(C)(=O)=O` [Example 40, 3-(2-Chloro-6-trifluoromethyl-pyridin-3-yl)-N-(3-ethynyl-5-fluoro-4-methanesulfonylamino-benzyl)-acrylamide], the IC50 was determined as 980 nM.

As to `C#Cc1cc(CNC(=O)/C=C/c2cnc(OC)cc2C(F)(F)F)cc(F)c1NS(C)(=O)=O` [Example 41, N-(3-Ethynyl-5-fluoro-4-methanesulfonylaminobenzyl)-3-(6-methoxy-4-trifluoromethylpyridin-3-yl)acrylamide], the IC50 amounted to 1600 nM.

As for `COc1cc(C(F)(F)F)c(/C=C/C(=O)NCc2ccc(NS(C)(=O)=O)c(F)c2)cn1` [Example 43, N-(3-Fluoro-4-methanesulfonylaminobenzyl)-3-(6-methoxy-4-trifluoromethylpyridin-3-yl)acrylamide], the IC50 was 9200 nM.
